Data as given in patent US8158810B2 (Gilead Sciences, Inc., priority 2006, dated 2012).

Columns and labels:
[1] = molecular target: T1, hMAO-A (Homo sapiens, UniProt P21397); experiment: MAO-A inhibition assay; type: biochemical; conditions: up to 10 μM; No = no inhibition; printed in the IC50 hMAO-A column
T1 construct: purchased Sigma M7316
T1 sequence (P21397 1-527): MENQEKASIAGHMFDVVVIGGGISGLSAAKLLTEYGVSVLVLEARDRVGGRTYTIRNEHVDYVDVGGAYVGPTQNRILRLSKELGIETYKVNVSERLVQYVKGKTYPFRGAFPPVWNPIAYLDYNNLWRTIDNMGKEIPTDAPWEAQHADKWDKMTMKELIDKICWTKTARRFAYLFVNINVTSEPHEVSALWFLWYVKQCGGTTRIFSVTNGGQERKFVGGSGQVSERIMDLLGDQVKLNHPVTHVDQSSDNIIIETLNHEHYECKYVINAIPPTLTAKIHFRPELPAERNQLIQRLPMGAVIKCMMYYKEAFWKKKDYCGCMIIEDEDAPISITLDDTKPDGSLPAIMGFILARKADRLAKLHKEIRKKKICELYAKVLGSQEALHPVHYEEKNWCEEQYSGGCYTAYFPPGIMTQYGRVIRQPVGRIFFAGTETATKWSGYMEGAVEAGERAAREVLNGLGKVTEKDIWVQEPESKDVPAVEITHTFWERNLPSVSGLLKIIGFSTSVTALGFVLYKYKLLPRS
Protocol: (§1) MAO-A (Sigma M7316) and MAO-B (Sigma M7441) inhibition assays were conducted in 96-well micro-plates according to the method described by Zhou et al. [Analytical Biochemistry 253, 169-174, 1997]. […] Reactions were initiated by the addition of a pre-mixed solution of tyramine, horseradish peroxidase and Amplex Red, and were allowed to proceed at 37° C. for 30 min. Enzyme activities were determined by measuring absorbance at 570 nm (SpectralMax Plate reader), absorbance of oxidized Amplex Red generated by this horseradish peroxidase-coupled reaction. Nonspecifically formed products were determined in the presence of 2 and 10 µM clorgyline and deprenyl for MAO-A and MAO-B, respectively. IC50 values were determined by fitting concentration-inhibition data to sigmoidal dose-response curves with two-floating parameters: IC50 and Hill coefficient.

[2] = molecular target: T2, hMAO-B (Homo sapiens, UniProt P27338); experiment: MAO-B inhibition assay; type: biochemical; conditions: No = no inhibition; for hMAO-B inhibition at 10 μM: printed in the IC50 hMAO-B column
T2 construct: purchased Sigma M7441
T2 sequence (P27338 1-520): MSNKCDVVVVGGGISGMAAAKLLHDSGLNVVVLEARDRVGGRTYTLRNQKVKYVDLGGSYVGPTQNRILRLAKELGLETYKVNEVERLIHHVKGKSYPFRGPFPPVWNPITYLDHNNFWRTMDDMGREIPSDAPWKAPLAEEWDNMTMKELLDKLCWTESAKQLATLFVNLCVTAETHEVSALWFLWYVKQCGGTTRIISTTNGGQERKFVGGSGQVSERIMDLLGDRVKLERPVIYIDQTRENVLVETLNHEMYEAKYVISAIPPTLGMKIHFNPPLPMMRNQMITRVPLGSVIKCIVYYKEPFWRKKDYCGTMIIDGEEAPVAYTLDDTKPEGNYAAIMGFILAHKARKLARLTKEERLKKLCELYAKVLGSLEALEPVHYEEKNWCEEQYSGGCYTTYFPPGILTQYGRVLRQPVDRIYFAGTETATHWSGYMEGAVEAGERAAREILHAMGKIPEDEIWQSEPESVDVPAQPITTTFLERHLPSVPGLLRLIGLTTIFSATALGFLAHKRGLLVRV
Protocol: as §1

| Structure (SMILES) | hMAO-A inhibition up to 10 μM [1] | hMAO-B inhibition up to 10 μM [2] | hMAO-B inhibition at 10 μM [2] |
| --- | --- | --- | --- |
| O=c1c(-c2ccc(O)cc2)coc2cc(OCc3noc(-c4cc(C(F)(F)F)ccc4C(F)(F)F)n3)ccc12 [PT-31, 7-({5-[2,5-bis(trifluoromethyl)phenyl](1,2,4-oxadiazol-3-yl)}methoxy)-3-(4-hydroxyphenyl)chromen-4-one] | No | No |  |
| O=c1c(-c2ccc(O)cc2)coc2cc(OCc3coc(-c4ccc(F)cc4)n3)ccc12 [PT-16, 7-{[2-(4-fluorophenyl)(1,3-oxazol-4-yl)]methoxy}-3-(4-hydroxyphenyl)chromen-4-one] | No |  | No |
| O=c1c(-c2ccc(O)cc2)coc2cc(OCc3nc(-c4cccc(C(F)(F)F)c4)no3)ccc12 [PT-115, 3-(4-hydroxyphenyl)-7-({3-[3-(trifluoromethyl)phenyl](1,2,4-oxadiazol-5-yl)}methoxy)chromen-4-one] | No |  | No |
| O=c1c(-c2ccc(O)cc2)coc2cc(OCc3nnc(-c4cccnc4)o3)ccc12 [PT-110, 3-(4-hydroxyphenyl)-7-[(5-(3-pyridyl)(1,3,4-oxadiazol-2-yl))methoxy]chromen-4-one] | No |  | No |
| O=c1c(-c2ccc(O)cc2)coc2cc(OCc3coc(-c4cc(F)cc(F)c4)n3)ccc12 [PT-14, 7-{[2-(3,5-difluorophenyl)(1,3-oxazol-4-yl)]methoxy}-3-(4-hydroxyphenyl)chromen-4-one] | No |  | No |
| O=C(O)c1cccc(-c2nc(COc3ccc4c(=O)c(-c5ccc(O)cc5)coc4c3)no2)c1 [PT-41, 3-(3-{[3-(4-hydroxyphenyl)-4-oxochromen-7-yloxy]methyl}-1,2,4-oxadiazol-5-yl)benzoic acid] | No | No |  |
| COc1ccc(COc2ccc3c(=O)c(-c4ccc(O)cc4)coc3c2)cc1C(F)(F)F [PT-27, 3-(4-hydroxyphenyl)-7-{[4-methoxy-3-(trifluoromethyl)phenyl]methoxy}chromen-4-one] | No | No |  |
| NC(=O)c1ccc(-c2coc3cc(OCc4noc(-c5cc(F)cc(C(F)(F)F)c5)n4)ccc3c2=O)cc1 [PT-72, 4-[7-({5-[3-fluoro-5-(trifluoromethyl)phenyl](1,2,4-oxadiazol-3-yl)}methoxy)-4-oxochromen-3-yl]benzamide] | No |  | No |
| O=C(O)c1cnc(COc2ccc3c(=O)c(-c4ccc(O)cc4)coc3c2)o1 [PT-49, 2-{[3-(4-hydroxyphenyl)-4-oxochromen-7-yloxy]methyl}-1,3-oxazole-5-carboxylic acid] | No |  |  |
| O=c1c(-c2ccc(O)cc2)coc2cc(OCc3cnc(-c4ccccc4)o3)ccc12 [PT-61, 3-(4-hydroxyphenyl)-7-[(2-phenyl(1,3-oxazol-5-yl))methoxy]chromen-4-one] | No |  |  |
| CC(=O)c1cccc(-c2coc3cc(OCc4noc(-c5cc(F)cc(C(F)(F)F)c5)n4)ccc3c2=O)c1 [PT-73, 3-(3-acetylphenyl)-7-({5-[3-fluoro-5-(trifluoromethyl)phenyl](1,2,4-oxadiazol-3-yl)}methoxy)chromen-4-one] | No |  |  |
| O=c1c(-c2ccc(O)cc2)coc2cc(OCc3nnc(-c4ccccc4Cl)s3)ccc12 [PT-64, 7-{[5-(2-chlorophenyl)(1,3,4-thiadiazol-2-yl)]methoxy}-3-(4-hydroxyphenyl)chromen-4-one] | No |  |  |
